In brackets after ≈: the same amount, converted by molar mass. Where two headings read alike, the source gives them in different places.
Columns and labels:
[1] = tested on: Staphylococcus aureus (JCM 2151); assay: Microbicidal test for Staphylococcus aureus; assay type: cell-based; conditions: FIG. 1; for retention time for reducing the number of bacteria to 1/1000 or less: 200 ppm sample in 0.2 M phosphate buffer (pH7.0), aerobic
Procedure: Ricinoleic acid monoglyceride synthesized in “1. Synthesis Example of ricinoleic acid monoglyceride” was added to a 0.2 M phosphate buffer (pH7.0) to prepare a 200 ppm sample. 0.1 mL of Staphylococcus aureus (JCM 2151) at approximately 1×10^8CFU/mL was added to 5 mL of the sample. While being kept under the aerobic condition, the bacterial sample was taken at 0, 5, 10, 30, 60 and 120 minutes after the addition, and the number of survival bacteria in the sample was counted at each retention time. Specifically, using a Brain Heart Infusion agar medium, the sample was serially diluted, cultured using a flat plate smear method at 37° C. for 48 hours, and then the number of bacteria was counted. As a comparative control, 4-isopropyl-3-methylphenol was simultaneously evaluated in the same way as in the above.

[2] = tested on: Propionibacterium acnes (JCM 6425); assay: Microbicidal test for Propionibacterium acnes; assay type: cell-based; conditions: FIG. 2; for retention time for reducing the number of bacteria to 1/100 or less: 200 ppm sample in 0.2 M phosphate buffer (pH7.0), anaerobic
Procedure: Ricinoleic acid monoglyceride synthesized in “1. Synthesis Example of ricinoleic acid monoglyceride” was added to a 0.2 M phosphate buffer (pH7.0) to prepare a 200 ppm sample. 0.1 mL of Propionibacterium acnes (JCM 6425) at approximately 1×10^8CFU/mL was added to 5 mL of the sample. While being kept under the anaerobic condition, the bacterial sample was taken at 0, 5, 10, 30, 60 and 120 minutes after the addition, and the number of survival bacteria in the sample was counted at each retention time. Specifically, using a GAM agar medium, the sample was serially diluted, cultured using the flat plate smear method at 37° C. under the anaerobic condition for 4 days, and then the number of bacteria was counted. As the comparative control, 4-isopropyl-3-methylphenol was simultaneously evaluated in the same way as in the above.

[3] = tested on: L. monocytogenes(JCM7671); assay: Antimicrobial test, growth inhibition minimum concentration; assay type: cell-based, Listeria monocytogenes; conditions: for minimum inhibitory concentration: Table 2
Procedure: (§1) 0.5 mL of a previously sterilized medium (brand name: Brain Heart Infusion Liquid Medium supplied by Nihon Pharmaceutical Co., Ltd.) was added into a 96-well deep type microplate, and 0.5 mL of ricinoleic acid monoglyceride or diglycerine ricinoleic acid monoester of the present invention (synthesized in “1. Synthesis Example of ricinoleic acid monoglyceride” and “2. Synthesis Example of diglycerine ricinoleic acid monoester,” respectively) was added thereto and serially prepared so that the final concentration in the medium was 3 ppm, 6 ppm, 12 ppm, 25 ppm, 50 ppm, 100 ppm, 200 ppm and 400 ppm. 0.1 mL of each cultured bacterial medium of Corynebacterium xerosis (JCM 1971) or Staphylococcus aureus (JCM 2151) at approximately 1×10^8CFU/mL was added to this sample solution, stirred, and then cultured at 37° C. under an aerobic condition for 24 hours. The antimicrobial effect was visually determined, and compared with test plots in which the microorganism had not been added. The test plot in which no turbidity due to growth of the microorganism was observed was determined as the test plot having the antimicrobial effect, and the lowest concentration required for inhibiting the growth of the microorganism (hereinafter referred to as a “growth inhibition minimum concentration”) was measured. As a Comparative Example, the growth inhibition minimum concentration of 4-isopropyl-3-methylphenol known as the antimicrobial agent having a broad antimicrobial spectrum was measured in the same way as in the above. The growth inhibition minimum concentrations of ricinoleic acid monoglyceride and diglycerine ricinoleic acid monoester of the present invention (synthesized in “1. Synthesis Example of ricinoleic acid monoglyceride” and “2. Synthesis Example of diglycerine ricinoleic acid monoester,” respectively) for the 9 indicator bacterial species shown in Table 2 were measured in the same way as in “3. Antimicrobial test” described above.

[4] = tested on: S. mutans(JCM5175); assay: as above; assay type: cell-based, Streptococcus mutans; conditions: for minimum inhibitory concentration: Table 2
Procedure: as §1

[5] = tested on: B. cereus(JCM2152); assay: as above; assay type: cell-based, Bacillus cereus; conditions: for minimum inhibitory concentration: Table 2
Procedure: as §1

[6] = tested on: Corynebacterium xerosis (JCM 1971); assay: as above; assay type: cell-based; conditions: C. xerosis(JCM1971)
Procedure: as §1

[7] = tested on: Staphylococcus aureus (JCM 2151); assay: as above; assay type: cell-based; conditions: S. aureus(JCM2151); for MIC: Staphylococcus aureus, read-out: minimum inhibitory concentration
Procedure: as §1

[8] = tested on: S. epidermidis(JCM2414); assay: as above; assay type: cell-based, Staphylococcus epidemidis; conditions: for minimum inhibitory concentration: Table 2
Procedure: as §1

[9] = tested on: Propionibacterium acnes (JCM 6425); assay: Antimicrobial test, growth inhibition minimum concentration (anaerobic); assay type: cell-based; conditions: Table 1, P. acnes(JCM6425), 37° C., 48 hours
Procedure: 0.5 mL of the previously sterilized medium (brand name: Brain Heart Infusion Liquid Medium supplied by Nihon Pharmaceutical Co., Ltd.) was added to a 96-well deep type microplate, and 0.5 mL of ricinoleic acid monoglyceride or diglycerine ricinoleic acid monoester of the present invention (synthesized in “1. Synthesis Example of ricinoleic acid monoglyceride” and “2. Synthesis Example of diglycerine ricinoleic acid monoester,” respectively) was added thereto and serially prepared so that the final concentration in the medium was 3 ppm, 6 ppm, 12 ppm, 25 ppm, 50 ppm, 100 ppm, 200 ppm and 400 ppm. 0.1 mL of a cultured bacterial medium of Propionibacterium acnes (JCM 6425) at approximately 1×10^8CFU/mL was added to this sample solution, and cultured at 37° C. under an anaerobic condition using a deoxidizer for 48 hours. The antimicrobial effect was visually determined, and the growth inhibition minimum concentration was measured. As a Comparative Example, the growth inhibition minimum concentration of 4-isopropyl-3-methylphenol known as the antimicrobial agent having a broad antimicrobial spectrum was measured in the same way as in the above.

[10] = tested on: E. coli(JCM1649); assay: Antimicrobial test, growth inhibition minimum concentration; assay type: cell-based, Escherichia coli; conditions: for antimicrobial activity against Escherichia coli: statement in words from Table 2
Procedure: as §1

[11] = tested on: B. subtile(JCM2151); assay: as above; assay type: cell-based, Bacillus subtilis; conditions: Table 2
Procedure: as §1

[12] = tested on: P. gingivalis(JCM8525); assay: as above; assay type: cell-based, Porphyromonas gingivalis; conditions: Table 2
Procedure: as §1

[13] = Compounding property in external preparations for skin; assay type: physicochemical
Procedure: Hyaluronic acid, ethanol, glycerine and ricinoleic acid monoglyceride were mixed, and then purified water was added to obtain a skin lotion.
Squalane, jojoba oil, bees wax and sorbitan sesquioleate were mixed, heated to 70° C. and dissolved (this was a mixture A). On the other hand, xanthan gum, 1,3-butylene glycol, ethanol and ricinoleic acid monoglyceride were mixed at room temperature (this was a mixture B). Subsequently, the mixture A and the mixture B were mixed, heated to 60° C., and added little by little to the purified water in which the N-palm oil fatty acid acyl L-arginine ethyl-DL-pyrrolidone carboxylate salt had been added, and vigorously stirring to emulsify to obtain a milky lotion.
Squalane, stearic acid, bees wax, stearyl alcohol and ricinoleic acid monoglyceride were mixed, heated to 70° C. and dissolved. The N-palm oil fatty acid acyl L-arginine ethyl-DL-pyrrolidone carboxylate salt and the purified water were added little by little to these heated and dissolved oil-based ingredients, and these were stirred well to obtain a cream.

[14] = Table 1, 37° C., aerobic, 24 hours

SMILES	minimum inhibitory concentration [3] [ppm]	minimum inhibitory concentration [4] [ppm]	minimum inhibitory concentration [5] [ppm]	minimum inhibitory concentration [11] [ppm]	minimum inhibitory concentration ([6]; Table 2) [ppm]	minimum inhibitory concentration ([7]; Table 2) [ppm]	minimum inhibitory concentration [8] [ppm]	minimum inhibitory concentration ([10]; Table 2, E. coli(JCM1649)) [ppm]	minimum inhibitory concentration [12] [ppm]	other results
Cc1cc(O)ccc1C(C)C [4-isopropyl-3-methyl phenol, 4-isopropyl-3-methylphenol]										retention time for reducing the number of bacteria to 1/1000 or less [1]: 30 min; microbicidal action for 10 minutes ([1]; 200 ppm, retention time 10 minutes): weak; retention time for reducing the number of bacteria to 1/100 or less [2]: 10 min; microbicidal action for 5 minutes ([2]; 200 ppm, retention time 5 minutes): weak; MIC ([3]; Listeria monocytogenes, Table 2, read-out: minimum inhibitory concentration): 200 µg/mL (≈ 1330 µM); MIC ([4]; Streptococcus mutans, Table 2, read-out: minimum inhibitory concentration): 200 µg/mL (≈ 1330 µM); MIC ([5]; Bacillus cereus, Table 2, read-out: minimum inhibitory concentration): 200 µg/mL (≈ 1330 µM); MIC ([6]; Corynebacterium xerosis, Table 1, 37° C., aerobic, 24 hours, read-out: minimum inhibitory concentration): 200 µg/mL (≈ 1330 µM); MIC [7, 14]: 200 µg/mL (≈ 1330 µM); MIC ([7]; Table 2): 200 µg/mL (≈ 1330 µM); MIC ([8]; Staphylococcus epidermidis, Table 2, read-out: minimum inhibitory concentration): 200 µg/mL (≈ 1330 µM); MIC ([9]; Cutibacterium acnes, read-out: minimum inhibitory concentration): 200 µg/mL (≈ 1330 µM); MIC ([10]; Escherichia coli, Table 2, E. coli(JCM1649), read-out: minimum inhibitory concentration): 400 µg/mL (≈ 2660 µM)
CCCCCCCCCCCC(=O)OCC(O)COCC(O)CO (stereo not drawn) [diglycerin lauric acid monoester]	200	50	100	100	200	50	100	>400		
CCCCCCCCCCCCCC(=O)OCC(O)COCC(O)CO (stereo not drawn) [diglycerin myristic acid monoester]		50		25	100	50	>400	>400		
CCCCCCC(O)CC=CCCCCCCCC(=O)OCC(O)COCC(O)CO (stereo not drawn) [diglycerin ricinoleic acid monoester, diglycerine ricinoleic acid monoester]	50	50	50	50	25	50	50	>400		minimum inhibitory concentration [6, 14]: 50 ppm; minimum inhibitory concentration [7, 14]: 50 ppm; minimum inhibitory concentration [9]: 100 ppm; antimicrobial activity against Escherichia coli [10]: did not exhibit antimicrobial activity
CCCCCCCCCCCC(=O)OCC(O)CO (stereo not drawn) [lauric acid monoglyceride]	25	25	25	25	100	50	25	>400	13	
CCCCCCCCCCCCCC(=O)OCC(O)CO (stereo not drawn) [myristic acid monoglyceride]	200	100	400	>400	400	400	>400	>400	50	
CCCCCC[C@@H](O)C/C=C\CCCCCCCC(=O)OCC(O)CO (stereo partly drawn) [ricinoleic acid monoglyceride]	25	25	12.5	25	25	25	25	>400	6	retention time for reducing the number of bacteria to 1/1000 or less [1]: ≤ 10 min; retention time for reducing the number of bacteria to 1/100 or less [2]: ≤ 5 min; compounding property: mixing with the other ingredients ([13]; cream, 2.0% by weight): mixed very well; blending property: mixing with the other ingredients ([13]; milky lotion, 1.0% by weight): immediately mixed; compounding property: mixing with the other ingredients ([13]; skin lotion, 0.5% by weight): easily mixed; minimum inhibitory concentration [6, 14]: 25 ppm; minimum inhibitory concentration [7, 14]: 25 ppm; minimum inhibitory concentration [9]: 50 ppm; antimicrobial activity against Escherichia coli [10]: did not exhibit antimicrobial activity
